These results are taken from ChEMBL document CHEMBL2390827, “Ligand-based design, synthesis, and experimental evaluation of novel benzofuroxan derivatives as anti-Trypanosoma cruzi agents” (Eur J Med Chem, 2013).

One assay deals with Trypanosoma cruzi. Description: Antitrypanosomal activity against epimastigote stage of Trypanosoma cruzi Y assessed as parasite growth inhibition after 5 days by spectrophotometric analysis. It counts as functional.
Assay [1] can be described thus: Cytotoxicity against human fibroblasts assessed as growth inhibition after 24 hrs by MTT assay. In kind it is cell-based. The following applies: Fibroblast. Background: Formazan colour is commonly taken as a measure of viable cells.
A short description of assay [2]: Selectivity index, ratio of IC50 for human fibroblasts to GI50 for epimastigote stage of Trypanosoma cruzi Y.

One may read the GI50 as the concentration giving 50% growth inhibition. One may read the IC50 as the concentration needed to halve the response being measured.

The source made the active and inactive calls. The rule behind the calls is not given here.

Regarding `O=C(N/N=C/c1ccc2c(c1)no[n+]2[O-])c1ccc([N+](=O)[O-])c(C(F)(F)F)c1`, the log1/GI50 in the assay with Trypanosoma cruzi was 4.8. In addition, the GI50 in the assay on Trypanosoma cruzi (Trypanosoma cruzi, Y, 120 h) came out at 15.9 µM.

With `O=C(N/N=C/c1ccc2c(c1)no[n+]2[O-])c1ccc(Br)cc1`, in the assay with Trypanosoma cruzi, the log1/GI50 is recorded as 5.11. Besides, in the assay with Trypanosoma cruzi (Trypanosoma cruzi, Y, 120 h), the GI50 is 7.78 µM. The IC50 in assay [1] was > 200 µM. Also, the “Selectivity Index” value in assay [2] is given as >25.71.

In the case of `O=C(N/N=C/c1ccc2c(c1)no[n+]2[O-])c1ccccc1`, the log1/GI50 with Trypanosoma cruzi is on record as 4.77. Further, in the assay with Trypanosoma cruzi (Trypanosoma cruzi, Y, 120 h), the concentration for 50% growth inhibition (GI50) amounted to 16.9 µM.

For `O=C(N/N=C/c1ccc2c(c1)no[n+]2[O-])c1ccc([N+](=O)[O-])cc1`, in the assay with Trypanosoma cruzi, the log1/GI50 came to 4.75. Also, the GI50 with Trypanosoma cruzi (Trypanosoma cruzi, Y, 120 h) turned out to be 17.8 µM.

As to `CCCOc1ccc(C(=O)N/N=C/c2ccc3c(c2)no[n+]3[O-])cc1`, in the assay on Trypanosoma cruzi, the log1/GI50 is 5.39. The 50% growth inhibitory concentration (GI50) with Trypanosoma cruzi (Trypanosoma cruzi, Y, 120 h) was 4.07 µM. In addition, the half-inhibitory concentration (IC50) in assay [1] is > 200 µM. Also, in assay [2], the “Selectivity Index” value is on record as >49.14.

Turning to `NS(=O)(=O)c1ccc(C(=O)N/N=C/c2ccc3c(c2)no[n+]3[O-])cc1`, in the assay with Trypanosoma cruzi, the log1/GI50 was determined as 4.22. In addition, the GI50 in the assay with Trypanosoma cruzi (Trypanosoma cruzi, Y, 120 h) was 60.4 µM. In assay [1], the IC50 amounted to 60 µM. Also, in assay [2], the “Selectivity Index” value is 0.99.

Turning to `O=C(N/N=C/c1ccc2c(c1)no[n+]2[O-])c1ccc(F)cc1`, the log1/GI50 with Trypanosoma cruzi is 4.82. The GI50 with Trypanosoma cruzi (Trypanosoma cruzi, Y, 120 h) worked out at 15.3 µM.

In the case of `O=C(N/N=C/c1ccc2c(c1)no[n+]2[O-])c1ccc(I)cc1`, in the assay with Trypanosoma cruzi, the log1/GI50 is 5.21. The concentration for 50% growth inhibition (GI50) with Trypanosoma cruzi (Trypanosoma cruzi, Y, 120 h) came to 6.11 µM. Besides, in assay [1], the concentration for half-maximal inhibition (IC50) was > 200 µM. The “Selectivity Index” value in assay [2] was >32.73.

In the case of `Cc1ccc(C(=O)N/N=C/c2ccc3c(c2)no[n+]3[O-])cc1`, in the assay on Trypanosoma cruzi, the log1/GI50 is given as 4.93. Further, the concentration for 50% growth inhibition (GI50) in the assay with Trypanosoma cruzi (Trypanosoma cruzi, Y, 120 h) amounted to 11.9 µM.

For the compound `CC1CS(=O)(=O)CCN1/N=C/c1ccc([N+](=O)[O-])o1` (stereo unspecified) [NIFURTIMOX], in the assay on Trypanosoma cruzi, the log1/GI50 came out at 5.42. In the assay on Trypanosoma cruzi (Trypanosoma cruzi, Y, 120 h), the 50% growth inhibitory concentration (GI50) was found to be 3.78 µM. Moreover, the IC50 in assay [1] was > 200 µM. Further, in assay [2], the “Selectivity Index” value is >52.91.

Turning to `CCCCOc1ccc(C(=O)N/N=C/c2ccc3c(c2)no[n+]3[O-])cc1`, the log1/GI50 with Trypanosoma cruzi is 5.24. For the same compound, in the assay with Trypanosoma cruzi (Trypanosoma cruzi, Y, 120 h), the concentration for 50% growth inhibition (GI50) came out at 5.78 µM. Moreover, the IC50 in assay [1] was > 200 µM. Also, in assay [2], the “Selectivity Index” value is >34.6.

Regarding `CC(C)(C)c1ccc(C(=O)N/N=C/c2ccc3c(c2)no[n+]3[O-])cc1`, the log1/GI50 with Trypanosoma cruzi was found to be 5.24. Further, the 50% growth inhibitory concentration (GI50) in the assay with Trypanosoma cruzi (Trypanosoma cruzi, Y, 120 h) was 5.45 µM. Also, the IC50 in assay [1] was > 200 µM. Besides, in assay [2], the “Selectivity Index” value is >36.7.

On to `CCCc1ccc(C(=O)N/N=C/c2ccc3c(c2)no[n+]3[O-])cc1`, for which the log1/GI50 with Trypanosoma cruzi stood at 5.52. The 50% growth inhibitory concentration (GI50) with Trypanosoma cruzi (Trypanosoma cruzi, Y, 120 h) was found to be 3.04 µM. Further, the concentration for half-maximal inhibition (IC50) in assay [1] was > 200 µM. The “Selectivity Index” value in assay [2] is reported as >65.79.

In the case of `CCc1ccc(C(=O)N/N=C/c2ccc3c(c2)no[n+]3[O-])cc1`, in the assay with Trypanosoma cruzi, the log1/GI50 turned out to be 5. Also, the GI50 with Trypanosoma cruzi (Trypanosoma cruzi, Y, 120 h) turned out to be 9.91 µM.

Turning to `Nc1ccc(C(=O)N/N=C/c2ccc3c(c2)no[n+]3[O-])cc1`, in the assay with Trypanosoma cruzi, the log1/GI50 came to 3.93. Besides, the GI50 with Trypanosoma cruzi (Trypanosoma cruzi, Y, 120 h) was 117 µM. Moreover, the half-maximal inhibitory concentration (IC50) in assay [1] was > 200 µM. Further, in assay [2], the “Selectivity Index” value is 1.71.

`O=C(N/N=C/c1ccc2c(c1)no[n+]2[O-])c1ccc(O)cc1`: the GI50 result in the assay with Trypanosoma cruzi was “inactive”.

Take `CC(=O)c1ccc(C(=O)N/N=C/c2ccc3c(c2)no[n+]3[O-])cc1`: the log1/GI50 with Trypanosoma cruzi is listed as 4.8. For the same compound, the GI50 with Trypanosoma cruzi (Trypanosoma cruzi, Y, 120 h) came out at 16 µM.

For the compound `CC(C)c1ccc(C(=O)N/N=C/c2ccc3c(c2)no[n+]3[O-])cc1`, the log1/GI50 in the assay on Trypanosoma cruzi is recorded as 5.15. For the same compound, the concentration for 50% growth inhibition (GI50) in the assay with Trypanosoma cruzi (Trypanosoma cruzi, Y, 120 h) was found to be 7.12 µM. In assay [1], the IC50 was > 200 µM. The “Selectivity Index” value in assay [2] is listed as >28.09.

Consider `CCCCc1ccc(C(=O)N/N=C/c2ccc3c(c2)no[n+]3[O-])cc1`, for which the log1/GI50 with Trypanosoma cruzi stood at 5.43. Also, the GI50 with Trypanosoma cruzi (Trypanosoma cruzi, Y, 120 h) turned out to be 3.72 µM. For the same compound, in assay [1], the half-maximal inhibitory concentration (IC50) was > 200 µM. The “Selectivity Index” value in assay [2] is on record as >53.76.

With `O=C(N/N=C/c1ccc2c(c1)no[n+]2[O-])c1ccc(Cl)cc1`, the log1/GI50 in the assay on Trypanosoma cruzi stood at 5. For the same compound, in the assay with Trypanosoma cruzi (Trypanosoma cruzi, Y, 120 h), the concentration for 50% growth inhibition (GI50) turned out to be 9.96 µM.

Regarding `O=C(N/N=C/c1ccc2c(c1)no[n+]2[O-])c1ccc(C(F)(F)F)cc1`, the log1/GI50 in the assay on Trypanosoma cruzi came to 5.02. Besides, the 50% growth inhibitory concentration (GI50) in the assay with Trypanosoma cruzi (Trypanosoma cruzi, Y, 120 h) came out at 9.62 µM.

Regarding `O=C(N/N=C/c1ccc2c(c1)no[n+]2[O-])c1ccc(Cl)c(Cl)c1`, the log1/GI50 with Trypanosoma cruzi is 5.04. The concentration for 50% growth inhibition (GI50) in the assay with Trypanosoma cruzi (Trypanosoma cruzi, Y, 120 h) is 9.07 µM. Further, in assay [1], the half-inhibitory concentration (IC50) came to 65 µM. Moreover, the “Selectivity Index” value in assay [2] was 7.17.

Regarding `COc1ccc(C(=O)N/N=C/c2ccc3c(c2)no[n+]3[O-])cc1`, the log1/GI50 with Trypanosoma cruzi amounted to 4.88. For the same compound, the GI50 in the assay with Trypanosoma cruzi (Trypanosoma cruzi, Y, 120 h) came to 13.2 µM.

Turning to `N#Cc1ccc(C(=O)N/N=C/c2ccc3c(c2)no[n+]3[O-])cc1`, in the assay on Trypanosoma cruzi, the log1/GI50 is 4.58. In the assay with Trypanosoma cruzi (Trypanosoma cruzi, Y, 120 h), the concentration for 50% growth inhibition (GI50) stood at 26.6 µM.

With `O=C(N/N=C/c1ccc([N+](=O)[O-])o1)c1ccc(O)cc1` [NIFUROXAZIDE], the log1/GI50 in the assay on Trypanosoma cruzi came out at 3.92. Further, the 50% growth inhibitory concentration (GI50) with Trypanosoma cruzi (Trypanosoma cruzi, Y, 120 h) came out at 120 µM. Also, in assay [1], the IC50 was 77.4 µM. For the same compound, the “Selectivity Index” value in assay [2] is recorded as 0.64.

Consider `O=C(N/N=C/c1ccc2c(c1)no[n+]2[O-])c1ccc(Cl)cc1Cl`, for which, in the assay with Trypanosoma cruzi, the log1/GI50 was determined as 5.02. For the same compound, in the assay with Trypanosoma cruzi (Trypanosoma cruzi, Y, 120 h), the concentration for 50% growth inhibition (GI50) was found to be 9.54 µM. Moreover, the 50% inhibitory concentration (IC50) in assay [1] was found to be 38.3 µM. Further, the “Selectivity Index” value in assay [2] amounted to 4.01.

With `CCOc1ccc(C(=O)N/N=C/c2ccc3c(c2)no[n+]3[O-])cc1`, the log1/GI50 with Trypanosoma cruzi stood at 5.02. Moreover, the GI50 with Trypanosoma cruzi (Trypanosoma cruzi, Y, 120 h) was determined as 9.62 µM.

In the case of `CN(C)c1ccc(C(=O)N/N=C/c2ccc3c(c2)no[n+]3[O-])cc1`, the GI50 result in the assay on Trypanosoma cruzi is “inactive”.

For `O=C(Cn1ccnc1[N+](=O)[O-])NCc1ccccc1` [BENZNIDAZOLE], the log1/GI50 in the assay with Trypanosoma cruzi came out at 4.68. Moreover, the GI50 in the assay on Trypanosoma cruzi (Trypanosoma cruzi, Y, 120 h) is 22.7 µM. The IC50 in assay [1] was > 200 µM. Moreover, the “Selectivity Index” value in assay [2] was >9.6.
